Source: patent US20050112573A1, “Method of detecting toxic substance” (priority 2001, published 2005)

Test system: yeast genes (level of expressed mRNA)
Assay: DNA chip analysis of expressed mRNA of yeast genes after 2 h culture with a toxic chemical substance
Assay type: cell-based, Saccharomyces cerevisiae S288C
Details: for The level of expressed mRNA in the presence of chemical substance/ (ratio to absence of chemical substance): stress protein genes, DNA chip
Protocol: Yeast (Saccharomyces cerevtisiae S288C (α SUC2mal mel gap2 CUP1)) were cultured at 25° C. on YPD medium (yeast extract 1%, polypepton 2%, glucose 2%). One of toxic chemical substances was added to the cell at logarithmic growth phase, and the cell was further cultured for two hours. Cell was cultured without any chemical substance in the same condition, and was used as control. Concentrations of the chemical substances were defined to inhibit the growth of the yeast but not lead to death.
After the completion of cultivation, the culture was centrifuged to collect the cells. To the cells, sodium acetate buffer (50 mM sodium acetate, 10 mM EDTA, 1% SDS) was added, and the mixture was shaken at 65° C. for five minutes, followed by returning to room temperature, and obtaining the supernatant, which procedure was repeated two times. To the supernatant, ½ amount of a solution of phenol/chloroform was added, and the mixture was centrifuged to give a supernatant, which was added with an equal amount of chloroform, and the mixture was centrifuged to give a supernatant. To the supernatant, an equal amount of isopropanol containing 0.3 M sodium acetate was added, and the mixture was allowed to stand at room temperature for 30 minutes, after which the mixture was centrifuged to give a sediment of the whole RNAs. Seventy % ethanol was added to the sediment, and the mixture was again centrifuged to give a sediment, which was then dried and dissolved in water. mRNA was isolated from the whole RNAs as followings. In view of the fact that a poly A chain is attached to the 3′ terminus of mRNA, a polynucleotide having a poly T structure which was immobilized on the surface of latex beads was used to trap the mRNA, and then the mRNA was washed and eluted with spine column (Oligotex-dT30<Super>mRNA Purification Kit, Takara). Reverse transcription of the mRNA was conducted with a reverse transcriptase (Super Script II Reverse Transcriptase; catalogue No. 18064-014, GibcoBRL) using fluorescence-labeled nucleotides to give cDNAs that were introduced with Cy3-dUTP or Cy5-dUTP during the reverse transcription.
The labeled cDNAs were dissolved in TE buffer (10 mM Tris-HCl/1 mM EDTA, pH8.0), and the solution was dropped on the DNA chip containing the whole genes of yeast (DNA Chip Research Inc. Japan) so that the cDNAs were hybridized on the DNA chip at 65° C. for over 12 hours. The fluoresces intensity of the DNA chip was read with a scanner, and the ratio relative to the fluorescence intensity resulting from the absence of chemical substance was estimated as the following, which is shown in Tables 1 to 9: [formula]
In the Tables, “Intensity” indicated in the rightmost column is a value of the level of expressed mRNA of each gene in control cells as divided by the average level of the expressions of the whole genes.

CCCCCCCCCCCCOS(=O)(=O)[O-].[Na+] [(18), sodium lauryl sulfate]
The level of expressed mRNA in the presence of chemical substance/The level of expressed mRNA in the absence of chemical substance (yeast gene YIL140W): 1.0
The level of expressed mRNA in the presence of chemical substance/ (in its absence), gene YJL070C (yeast gene YJL070C, ratio of DNA chip fluorescence intensity to that without chemical substance): 1.2
The level of expressed mRNA in the presence of chemical substance/The level of expressed mRNA in the absence of chemical substance (yeast gene YJL073W): 1.0
The level of expressed mRNA in the presence of chemical substance/The level of expressed mRNA in the absence of chemical substance (yeast gene YJL089W): 1.1
The level of expressed mRNA in the presence of chemical substance/ (ratio to absence), gene YJL096W (yeast gene YJL096W, mitochondria-located protein genes, 2 h culture with chemical): 1.2
The level of expressed mRNA in the presence of chemical substance/The level of expressed mRNA in the absence of chemical substance (yeast gene YJL116C): 0.7
The level of expressed mRNA in the presence of chemical substance/ (ratio to absence of chemical substance) (yeast gene YJL158C): 1.4
The level of expressed mRNA in the presence of chemical substance/ (in its absence), gene YJL167W (yeast gene YJL167W, ratio of DNA chip fluorescence intensity to that without chemical substance): 2.1
The level of expressed mRNA in the presence of chemical substance/ (ratio to absence), gene YJL180C (yeast gene YJL180C, mitochondria-located protein genes, 2 h culture with chemical): 1.4
The level of expressed mRNA in the presence of chemical substance/ (in its absence), gene YJL216C (yeast gene YJL216C, ratio of DNA chip fluorescence intensity to that without chemical substance): 2.0
The level of expressed mRNA in the presence of chemical substance/The level of expressed mRNA in the absence of chemical substance (yeast gene YJR004C): 0.4
The level of expressed mRNA in the presence of chemical substance/The level of expressed mRNA in the absence of chemical substance (yeast gene YJR086W): 1.6
The level of expressed mRNA in the presence of chemical substance/ (ratio to absence of chemical substance) (yeast gene YJR090C): 1.0
The level of expressed mRNA in the presence of chemical substance/The level of expressed mRNA in the absence of chemical substance (yeast gene YKL008C): 1.9
The level of expressed mRNA in the presence of chemical substance/The level of expressed mRNA in the absence of chemical substance (yeast gene YKL013C): 1.7
The level of expressed mRNA in the presence of chemical substance/The level of expressed mRNA in the absence of chemical substance (yeast gene YKL039W): 1.3
The level of expressed mRNA in the presence of chemical substance/The level of expressed mRNA in the absence of chemical substance (yeast gene YKL041W): 1.3
The level of expressed mRNA in the presence of chemical substance/The level of expressed mRNA in the absence of chemical substance (yeast gene YKL096W): 0.7
The level of expressed mRNA in the presence of chemical substance/ (ratio to absence of chemical substance) (yeast gene YKL164C): 0.8
The level of expressed mRNA in the presence of chemical substance/The level of expressed mRNA in the absence of chemical substance (yeast gene YKL165C): 1.0
The level of expressed mRNA in the presence of chemical substance/The level of expressed mRNA in the absence of chemical substance (yeast gene YKL193C): 2.3
The level of expressed mRNA in the presence of chemical substance/ (in its absence), gene YKR009C (yeast gene YKR009C, ratio of DNA chip fluorescence intensity to that without chemical substance): 2.5
The level of expressed mRNA in the presence of chemical substance/ (in its absence), gene YKR034W (yeast gene YKR034W, ratio of DNA chip fluorescence intensity to that without chemical substance): 1.0
The level of expressed mRNA in the presence of chemical substance/ (ratio to absence of chemical substance) (yeast gene YKR053C): 2.4
The level of expressed mRNA in the presence of chemical substance/ in its absence, gene YKR058W (yeast gene YKR058W, energy system protein genes, 2 h culture with the chemical, ratio to control without chemical): 1.6
The level of expressed mRNA in the presence of chemical substance/ (in its absence), gene YLR006C (yeast gene YLR006C, ratio of DNA chip fluorescence intensity to that without chemical substance): 1.0
The level of expressed mRNA in the presence of chemical substance/ (ratio to absence of chemical substance) (yeast gene YLR006C): 1.0
The level of expressed mRNA in the presence of chemical substance/The level of expressed mRNA in the absence of chemical substance (yeast gene YLR120C): 2.9
The level of expressed mRNA in the presence of chemical substance/The level of expressed mRNA in the absence of chemical substance (yeast gene YLR136C): 1.4
The level of expressed mRNA in the presence of chemical substance/The level of expressed mRNA in the absence of chemical substance (yeast gene YLR178C): 3.6
The level of expressed mRNA in the presence of chemical substance/The level of expressed mRNA in the absence of chemical substance (yeast gene YLR250W): 2.2
The level of expressed mRNA in the presence of chemical substance/ in its absence, gene YLR295C (yeast gene YLR295C, energy system protein genes, 2 h culture with the chemical, ratio to control without chemical): 1.5
The level of expressed mRNA in the presence of chemical substance/ (ratio to absence), gene YLR295C (yeast gene YLR295C, mitochondria-located protein genes, 2 h culture with chemical): 1.5
The level of expressed mRNA in the presence of chemical substance/The level of expressed mRNA in the absence of chemical substance (yeast gene YLR327C): 5.3
The level of expressed mRNA in the presence of chemical substance/ (in its absence), gene YLR351C (yeast gene YLR351C, ratio of DNA chip fluorescence intensity to that without chemical substance): 1.8
The level of expressed mRNA in the presence of chemical substance/The level of expressed mRNA in the absence of chemical substance (yeast gene YLR356W): 1.0
The level of expressed mRNA in the presence of chemical substance/The level of expressed mRNA in the absence of chemical substance (yeast gene YLR362W): 1.3
The level of expressed mRNA in the presence of chemical substance/ (in its absence), gene YLR375W (yeast gene YLR375W, ratio of DNA chip fluorescence intensity to that without chemical substance): 1.0
The level of expressed mRNA in the presence of chemical substance/The level of expressed mRNA in the absence of chemical substance (yeast gene YLR391W): 0.9
The level of expressed mRNA in the presence of chemical substance/The level of expressed mRNA in the absence of chemical substance (yeast gene YLR429W): 0.9
The level of expressed mRNA in the presence of chemical substance/ in its absence, gene YML129C (yeast gene YML129C, energy system protein genes, 2 h culture with the chemical, ratio to control without chemical): 1.3
The level of expressed mRNA in the presence of chemical substance/ (ratio to absence), gene YML129C (yeast gene YML129C, mitochondria-located protein genes, 2 h culture with chemical): 1.3
The level of expressed mRNA in the presence of chemical substance/The level of expressed mRNA in the absence of chemical substance (yeast gene YMR004W): 1.3
The level of expressed mRNA in the presence of chemical substance/ (ratio to absence), gene YMR023C (yeast gene YMR023C, mitochondria-located protein genes, 2 h culture with chemical): 1.4
The level of expressed mRNA in the presence of chemical substance/The level of expressed mRNA in the absence of chemical substance (yeast gene YMR094W): 1.0
The level of expressed mRNA in the presence of chemical substance/The level of expressed mRNA in the absence of chemical substance (yeast gene YMR104C): 1.9
The level of expressed mRNA in the presence of chemical substance/ (ratio to absence of chemical substance) (yeast gene YMR186W): 1.1
The level of expressed mRNA in the presence of chemical substance/The level of expressed mRNA in the absence of chemical substance (yeast gene YMR219W): 0.9
The level of expressed mRNA in the presence of chemical substance/The level of expressed mRNA in the absence of chemical substance (yeast gene YMR226C): 2.0
The level of expressed mRNA in the presence of chemical substance/ in its absence, gene YMR267W (yeast gene YMR267W, energy system protein genes, 2 h culture with the chemical, ratio to control without chemical): 1.3
The level of expressed mRNA in the presence of chemical substance/ (ratio to absence), gene YMR267W (yeast gene YMR267W, mitochondria-located protein genes, 2 h culture with chemical): 1.3
The level of expressed mRNA in the presence of chemical substance/ in its absence, gene YMR267W (yeast gene YMR267W, ratio of DNA chip fluorescence intensity to that without chemical substance): 1.3
The level of expressed mRNA in the presence of chemical substance/The level of expressed mRNA in the absence of chemical substance (yeast gene YMR275C): 0.7
The level of expressed mRNA in the presence of chemical substance/The level of expressed mRNA in the absence of chemical substance (yeast gene YMR276W): 0.7
The level of expressed mRNA in the presence of chemical substance/ (in its absence), gene YMR278W (yeast gene YMR278W, ratio of DNA chip fluorescence intensity to that without chemical substance): 1.5
The level of expressed mRNA in the presence of chemical substance/ (in its absence), gene YMR293C (yeast gene YMR293C, ratio of DNA chip fluorescence intensity to that without chemical substance): 1.0
The level of expressed mRNA in the presence of chemical substance/The level of expressed mRNA in the absence of chemical substance (yeast gene YMR314W): 1.6
